According to US5270302A, “Derivatives of tetrapeptides as CCK agonists” (priority 1991, dated 1993):
Structures can show the parent of a compound that is named as a salt. Where two headings read alike, the source gives them in different places. *1 amine or outer side, *2 acyl side, *3 side chain or, on linkers, in order; H or OH if unused. Where a SMILES comes first, the peptide text is derived from it. Side-chain parts run from the residue outwards. [ ]: non-standard residue; d: D form. The star is where a group is joined. Acryloyl(3-(pyridin-3-yl)) = O=C(C=Cc1cccnc1)*; 2Naphthoyl(6-OH) = O=C(c1ccc2cc(O)ccc2c1)*; NMeW = CN[C@@H](Cc1c[nH]c2ccccc12)C(=O)O; Isobutyloxycarbonyl = CC(C)COC(=O)*; Adoc = O=C(OC12CC3CC(CC(C3)C1)C2)*; Isopropoxycarbonyl = CC(C)OC(=O)*; NMeF = CN[C@@H](Cc1ccccc1)C(=O)O; NMeD = CN[C@@H](CC(=O)O)C(=O)O; X4 = O=C(OC1C2CC3CC(C2)CC1C3)*; NH(2-Me-phenyl) = Cc1ccccc1N*; X1 = O=C(C=Cc1ccc(O)cc1)*; βNA = c1ccc2cc(N*)ccc2c1; Cbz = O=C(OCc1ccccc1)*; Boc = CC(C)(C)OC(=O)*; X3 = O=C(C=Cc1cccs1)*; CO = O=C([*:1])[*:2]

Tests used:
[1] = molecular target: T1, Type-A CCK receptor (Cavia porcellus, UniProt Q63931); assay: Radioligand binding of [125I]BH-CCK-8 in guinea pig pancreatic membrane preparations
T1 construct: Cortical and pancreatic membranes were prepared as described; from tissue; host or cells: guinea pig pancreas membranes
T1 sequence (Q63931 1-430): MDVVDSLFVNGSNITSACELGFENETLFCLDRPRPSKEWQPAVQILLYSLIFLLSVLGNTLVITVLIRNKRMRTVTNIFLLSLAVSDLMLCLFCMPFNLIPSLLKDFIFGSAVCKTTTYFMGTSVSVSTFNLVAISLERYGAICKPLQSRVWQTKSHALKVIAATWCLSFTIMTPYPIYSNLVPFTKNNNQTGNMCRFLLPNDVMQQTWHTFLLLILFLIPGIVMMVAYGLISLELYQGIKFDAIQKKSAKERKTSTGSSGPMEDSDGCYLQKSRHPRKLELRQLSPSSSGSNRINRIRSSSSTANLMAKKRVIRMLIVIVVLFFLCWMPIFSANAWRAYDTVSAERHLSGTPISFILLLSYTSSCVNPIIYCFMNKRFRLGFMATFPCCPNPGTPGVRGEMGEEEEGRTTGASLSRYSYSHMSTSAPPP
Excerpt: (§1) CCK-8 [Asp-Tyr(SO3 H)-Met-Gly-Trp-Met-Asp-PheNH2 ], bestatin and phosphoramidion were purchased from Peptide International (Louisville, Ky.). EGTA (ethylene glycol-bis-(β-aminoethyl) N,N,N',N'-tetraacetic acid), HEPES (4-(2-hydroxyethyl)-1-piperazine-enthanesulfonic acid) and BSA (bovine serum albumin) were purchased from Sigma Chemical Co. (St. Louis, Mo.). [^125 I]-Bolton-Hunteer (BH-CCK-8) (specific activity, 2200 Ci/mmol) was obtained from New England Nuclear (Boston, Mass.). Male guinea pigs, 250 to 325 g, were obtained from Scientific Small Animal Laboratory and Farm (Arlington Heights, Ill.). Collagenase, code CLSPA was purchased from Worthington (Frehold, N.J.).
(§2) Protocol For Radioligand Binding Experiments in Guinea Pig Cerebral Cortical and Pancreatic Membrane Preparations
(§3) Cortical and pancreatic membranes were prepared as described (Lin and Miller; J. Pharmacol. Exp. Ther. 1985, 232:775-780,). In brief, cortex and pancreas were removed and rinsed with ice-cold saline. Visible fat and connective tissues were removed from the pancreas. […] The homogenates were entrifuged for 10 minutes at 1075×g and pellets were discarded. The supernatants were saved and centrifuged at 38,730×g for 20 minutes. The resultant pellets were rehomogenized in 25 mL of 50 mM Tris-HCl buffer with a Teflon-glass homogenizer, 5 up and down strokes. The homogenates were centrifuged again at 38,730×g for 20 minutes. Pellets werre then resuspended in 20 mM HEPES, containing 1 mM EGTA, 118 mM NaCl, 4.7 mM KCl, 5 mM MgCl2, 100 μM bestatin, 3 μM phosphoramidon, pH 7.4 at 22° C. with a Teflon-glass homogenizer, 15 up and down strokes. Resuspension volume for the cortex was 15-18 mL per gram of original wet weight and 60 mL per gram for the pancreas.
(§4) [^125 I]Bolton-Hunter CCK-8 and test compounds were diluted with HEPES-EGTA-salt buffer (see above) containing 0.5% BSA. To 1 mL Skatron polystyrene tubes were added 25 μL of test compounds, 25 μL of [^125 I]BH-CCK-8 and 200 μL of membrane suspension. The final BSA concentration was 0.1%. The cortical tissues were incubated at 30° C. for 150 minutes and pancreatic tissues were incubated at 37° C. for 150 min. Incubations were terminated by filtration using Skatron Cell Harvester and SS32 microfiber filter mats. […] IC50 s were determined from the Hill analysis.

[2] = molecular target: T2, Type-B CCK receptor (Cavia porcellus, UniProt H0VZC5); assay: Radioligand binding of [125I]BH-CCK-8 in guinea pig cerebral cortical membrane preparations
T2 construct: Cortical and pancreatic membranes were prepared as described; from tissue; host or cells: guinea pig cerebral cortex membranes
T2 sequence (H0VZC5 1-426): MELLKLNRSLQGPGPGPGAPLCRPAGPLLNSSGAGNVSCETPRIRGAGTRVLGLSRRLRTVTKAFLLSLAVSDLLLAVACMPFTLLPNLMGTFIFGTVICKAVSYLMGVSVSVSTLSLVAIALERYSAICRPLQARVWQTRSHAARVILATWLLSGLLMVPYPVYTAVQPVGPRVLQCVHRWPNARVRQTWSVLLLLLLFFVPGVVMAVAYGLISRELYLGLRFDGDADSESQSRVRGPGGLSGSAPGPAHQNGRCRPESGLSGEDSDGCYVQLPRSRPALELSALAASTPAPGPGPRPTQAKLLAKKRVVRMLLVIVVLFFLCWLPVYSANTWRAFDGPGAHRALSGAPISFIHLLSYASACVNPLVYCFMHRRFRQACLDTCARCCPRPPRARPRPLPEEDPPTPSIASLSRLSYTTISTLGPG
Excerpt: as §1, §2, §3, §4

[3] = guinea pig pancreatic membranes, 37° C., 150 min, read-out: IC50 (nM) 125I-BH-CCK-8 Type-A receptor
[4] = guinea pig cortical membranes, 30° C., 150 minutes, read-out: IC50 (nM) 125I-BH-CCK-8 Type-B receptor
[5] = IC50 (nM) 125I-BH-CCK-8 Type-A receptor, guinea pig pancreatic membranes, 37° C., 150 min

| IC50 [1, 3] [nM] | IC50 [2, 4] [nM] | Compound | IC50 [2] [nM] | other results |
| --- | --- | --- | --- | --- |
| 20 | 4500 | Cc1ccccc1NC(=O)NCCCC[C@H](NC(=O)C(F)Cc1c[nH]c2ccccc12)C(=O)N[C@@H](CC(=O)O)C(=O)N[C@@H](Cc1ccccc1)C(N)=O (some centres unmarked) [Example 63, 2-Fluoro-3-(indol-3-yl)propionyl-Lys(ε-N-(2-methylphenyl)aminocarbonyl)-Asp-PheNH2] | – | – |
| 10 | 640 | Cc1ccccc1NC(=O)NCCCC[C@H](NC(=O)C(C#N)Cc1c[nH]c2ccccc12)C(=O)N[C@@H](CC(=O)O)C(=O)N[C@@H](Cc1ccccc1)C(N)=O (some centres unmarked) [Example 64, (2-Cyano-3-(3-indolyl)propionyl)-Lys(ε-N-(2-methylphenyl)aminocarbonyl)-Asp-PheNH2] | – | – |
| 68 | 10000 | Cc1ccccc1NC(=O)NCCCC[C@H](NC(=O)CCc1c[nH]c2ccccc12)C(=O)N(C)[C@@H](CC(=O)O)C(=O)N[C@@H](Cc1ccccc1)C(N)=O [Example 65, 3-(3-Indolyl)propionyl-Lys(ε-N-(2-methylphenyl)aminocarbonyl)-(NMe)Asp-PheNH2] | – | – |
| 35 | 8100 | CN(C(=O)[C@H](CCCCNC(=O)C=Cc1cccs1)NC(=O)[C@H](Cc1c[nH]c2ccccc12)NC(=O)OC(C)(C)C)[C@@H](CC(=O)O)C(=O)N[C@@H](Cc1ccccc1)C(N)=O [Example 66, t-BOC-Trp-Lys-(ε-N-3-(2-thienyl)acrylyl)-(NMe)Asp-PheNH2] (Boc-WK(X3)[NMeD]F-NH2) | – | – |
| 40 | 8300 | CN(C(=O)[C@H](CCCCNC(=O)C=Cc1cccnc1)NC(=O)[C@H](Cc1c[nH]c2ccccc12)NC(=O)OC(C)(C)C)[C@@H](CC(=O)O)C(=O)N[C@@H](Cc1ccccc1)C(N)=O [Example 67, t-BOC-Trp-Lys-(ε-N-3-(3-pyridyl)acrylyl)-(NMe)Asp-PheNH2] (Boc-WK(Acryloyl(3-(pyridin-3-yl)))[NMeD]F-NH2) | – | – |
| – | – | CN[C@@H](Cc1c[nH]c2ccccc12)C(=O)N[C@@H](CCCCNC(=O)Nc1ccccc1C)C(=O)N(C)[C@@H](CC(=O)O)C(=O)N[C@@H](Cc1ccccc1)C(N)=O [Example 69, HCl-(NMe)Trp-Lys(ε-N-(2-methylphenyl)aminocarbonyl)-(NMe)Asp-PheNH2] (H-[NMeW]K([CO-NH(2-Me-phenyl)])[NMeD]F-NH2) | > 10000 | IC50 [1, 5]: 14 nM |
| 13 | > 10000 | Cc1ccccc1NC(=O)NCCCC[C@H](NC(=O)CCc1c[nH]c2ccccc12)C(=O)N[C@@H](CC(=O)O)C(=O)N(C)[C@@H](Cc1ccccc1)C(N)=O [Example 70, 3-(Indol-3-yl)propionyl-Lys(ε-N-(2-methylphenyl)aminocarbonyl)-Asp-(NMe)PheNH2] | – | – |
| 15 | 3700 | CN(C(=O)[C@H](CCCCNC(=O)c1ccc2cc(O)ccc2c1)NC(=O)[C@H](Cc1c[nH]c2ccccc12)NC(=O)OC(C)(C)C)[C@@H](CC(=O)O)C(=O)N(C)[C@@H](Cc1ccccc1)C(N)=O [Example 73] (Boc-WK(2Naphthoyl(6-OH))[NMeD][NMeF]-NH2) | – | – |
| – | – | Cc1ccccc1NC(=O)NCCCC[C@H](NC(=O)[C@H](Cc1c[nH]c2ccccc12)NC(=O)OC1C2CC3CC(C2)CC1C3)C(=O)N[C@@H](CC(=O)O)C(=O)N(C)[C@@H](Cc1ccccc1)C(N)=O (some centres unmarked) [Example 74, 2-Adamantyloxycarbonyl-Trp-Lys(ε-N-(2-methylphenyl)aminocarbonyl)Asp-(NMe)PheNH2] (X4-WK([CO-NH(2-Me-phenyl)])D[NMeF]-NH2) | 8000 | IC50 [1]: 22 nM |
| – | – | Cc1ccccc1NC(=O)NCCCC[C@H](NC(=O)[C@H](Cc1c[nH]c2ccccc12)NC(=O)OC12CC3CC(CC(C3)C1)C2)C(=O)N[C@@H](CC(=O)O)C(=O)N(C)[C@@H](Cc1ccccc1)C(N)=O [Example 75, 1-Adamantyloxycarbonyl-Trp-Lys(ε-N-(2-methylphenyl)aminocarbonyl)-Asp-(NMe)PheNH2] (Adoc-WK([CO-NH(2-Me-phenyl)])D[NMeF]-NH2) | 10000 | IC50 [1]: 17 nM |
| – | – | Cc1ccccc1NC(=O)NCCCC[C@H](NC(=O)[C@H](Cc1c[nH]c2ccccc12)NC(=O)OCc1ccccc1)C(=O)N[C@@H](CC(=O)O)C(=O)N(C)[C@@H](Cc1ccccc1)C(N)=O [Example 76, Benzyloxycarbonyl-Trp-Lys(ε-N-(2-methylphenyl)aminocarbonyl)-Asp-(NMe)PheNH2] (Cbz-WK([CO-NH(2-Me-phenyl)])D[NMeF]-NH2) | 6400 | IC50 [1]: 18 nM |
| – | – | Cc1ccccc1NC(=O)NCCCC[C@H](NC(=O)[C@H](Cc1c[nH]c2ccccc12)NC(=O)OCC(C)C)C(=O)N[C@@H](CC(=O)O)C(=O)N(C)[C@@H](Cc1ccccc1)C(N)=O [Example 77, Isobutyloxycarbonyl-Trp-Lys(ε-N-(2-methylphenyl)aminocarbonyl)-Asp-(NMe)PheNH2] (Isobutyloxycarbonyl-WK([CO-NH(2-Me-phenyl)])D[NMeF]-NH2) | – | IC50 [1, 5]: 2.3 nM; IC50 ([2]; IC50 (nM) 125I-BH-CCK-8 Type-B receptor, guinea pig cortical membranes, 30° C., 150 minutes): 6500 nM |
| – | – | Cc1ccccc1NC(=O)NCCCC[C@H](NC(=O)[C@H](Cc1c[nH]c2ccccc12)NC(=O)OC(C)C)C(=O)N[C@@H](CC(=O)O)C(=O)N(C)[C@@H](Cc1ccccc1)C(N)=O [Example 78, Isopropyloxycarbonyl-Trp-Lys(ε-N-(2-methylphenyl)aminocarbonyl)-Asp-(NMe)PheNH2] (Isopropoxycarbonyl-WK([CO-NH(2-Me-phenyl)])D[NMeF]-NH2) | 5000 | IC50 [1, 5]: 1.6 nM |

| Compound | IC50 [1, 3] [nM] | IC50 [2, 4] [nM] | IC50 [2] [nM] | other results |
| --- | --- | --- | --- | --- |
| CC(C)(C)OC(=O)N[C@@H](Cc1c[nH]c2ccccc12)C(=O)N[C@@H](CCCCNC(=O)Nc1ccc2ccccc2c1)C(=O)N[C@@H](CC(=O)O)C(=O)N[C@@H](Cc1ccccc1)C(N)=O [Example 44, t-BOC-Trp-Lys(ε-N-(β-naphthyl)aminocarbonyl)-Asp-PheNH2] (Boc-WK([CO-βNA])DF-NH2) | 16 | – | 3200 | – |
| CN(C(=O)[C@H](CCCCNC(=O)C=Cc1ccc(O)cc1)NC(=O)[C@H](Cc1c[nH]c2ccccc12)NC(=O)OC(C)(C)C)[C@@H](CC(=O)O)C(=O)N[C@@H](Cc1ccccc1)C(N)=O [Example 71, t-BOC-Trp-Lys(ε-N-(4-hydroxycinnamoyl))-(NMe)Asp-PheNH2] (Boc-WK(X1)[NMeD]F-NH2) | 4.9 | 5800 | – | – |
| CN(C(=O)[C@H](CCCCNC(=O)C=Cc1ccc(O)cc1)NC(=O)[C@H](Cc1c[nH]c2ccccc12)NC(=O)OC(C)(C)C)[C@@H](CC(=O)O)C(=O)N(C)[C@@H](Cc1ccccc1)C(N)=O [Example 72, t-BOC-Trp-Lys(ε-N-(4-hydroxycinnamoyl))-(NMe)Asp-(NMe)PheNH2] (Boc-WK(X1)[NMeD][NMeF]-NH2) | 12 | > 9000 | – | – |
